Source: ChEMBL document CHEMBL3988442, “University of Dundee, Small-Polar-MMV Screening Library” (2021)

Tests used:
[1] = microbe, parasite or virus in culture; details: Mycobacterium tuberculosis, 96 h, read-out: pIC50 (converted)
[2] = microbe, parasite or virus in culture; details: Mycobacterium tuberculosis, 72 h, read-out: pIC50 (converted)

| SMILES | IC50 [1] [µM] | IC50 [2] [µM] |
| --- | --- | --- |
| COC(=O)C(C)OC(=O)c1cccnc1SC (stereo not given) | > 501 | > 501 |
| COC(=O)c1ccc(COc2ccccc2CO)o1 | 250 | 230 |
| Cc1ccc(C(C)(C)CN(C)C(=O)CCN)cc1 | > 501 | 64.1 |
| N#CCOC(=O)c1ccc2c(c1)OCCCO2 | 182 | > 501 |
| CCNC(=O)NC(c1ccc2c(c1)OCCO2)C(C)C (stereo not given) | > 501 | > 501 |
| NCCC1CN(Cc2cc3ccccc3s2)CCO1 (stereo not given) | 332 | 308 |
| CC(C)CCn1ccc(NC(=O)C2(O)CCC2)n1 | 331 | 308 |
| Cn1ccc(CNC(=O)NCC2CC2)c1 | > 501 | > 501 |
| CCCn1cc(CNc2ccc(F)cn2)cn1 | 234 | 160 |
| COc1ccc(C(=O)N(C)CCn2cccn2)cc1 | > 501 | > 501 |
| COc1ccc(OC)c(CNc2nc(C)nn2C)c1 | > 501 | 199 |
| N#Cc1ccccc1N1CCCC(N)C1 (stereo not given) | 142 | 79.7 |
| COc1cccc(Nc2ccc(N)nc2)c1 | 241 | 128 |
| NCc1coc(-c2cccs2)n1 | 298 | 144 |
| Cc1cc(Br)oc1C(=O)N1CCCN(C)CC1 | > 501 | 248 |
| CN(C)S(=O)(=O)N(CCO)Cc1ccc(Cl)c(Cl)c1 | 308 | 216 |
| CCCOc1cc(CNC(=O)c2nccn2C)ccn1 | 201 | 248 |
| CC(C)Oc1ccc(S(=O)(=O)N2CCC(N)C2)cc1 (stereo not given) | > 501 | 212 |
| COc1cccc(CNc2cncc(SC)n2)n1 | 176 | 139 |
| CNc1cc(CN(C)Cc2ccccc2)ccn1 | 430 | 227 |
| O=C(NCCSC1CCCC1)c1ccccn1 | > 501 | 173 |
| CC1(C)CNCCC(=O)C1 | 246 | 259 |

| SMILES | IC50 [1] [µM] | IC50 [2] [µM] |
| --- | --- | --- |
| O=C(CC1Sc2ccc(Cl)cc2NC1=O)OCCO (stereo not given) | 286 | 222 |
| O=S(=O)(c1ccco1)N1CCOCc2ccccc21 | > 501 | 291 |
| CCN(CCn1cccn1)C(=O)c1cc(C(C)C)no1 | > 501 | > 501 |
| CNC(=O)Nc1ccc(OC)c(OCCOC)c1 | 219 | 138 |
| CN(C1(C#N)CCC1)S(=O)(=O)c1ccccc1 | > 501 | > 501 |
| CCOc1cccc(CNc2nc(N(C)C)n[nH]2)c1 | 34.2 | 57.4 |
| NCC(CO)Cc1ccc(F)c(Br)c1 (stereo not given) | 249 | 375 |
| CN(Cc1ccc(N)nc1)c1ncc(Cl)cn1 | 237 | 208 |
| COCCn1nnc(-c2cccc(OC)c2)n1 | 42.2 | 43.7 |
| Cc1cc(C(=O)Nc2ccc3c(c2)CCCN3)on1 | > 501 | 150 |
| CN(C)C(=O)CSCC(=O)NCc1ccc(Cl)cc1 | > 501 | 86.8 |
| COc1cc(CNC(=O)Nc2ccnc(C)c2)ccn1 | 98.2 | 100 |
| Cc1cc(Br)cc2cc(C(=O)NC(C)(CO)CO)oc12 | 285 | 369 |
| CCS(=O)(=O)NC1CCN(c2cc(Br)ccn2)CC1 | > 501 | 146 |
| CNCCCNC(=O)CCc1ccc(F)cc1 | > 501 | > 501 |
| CCc1cccc2c1OCCC2N (stereo not given) | > 501 | > 501 |
| CN(C)C(CN)C1CCCCC1 (stereo not given) | 252 | 279 |
| CCCOc1cc(CNC(=O)c2csnc2C)ccn1 | 215 | 350 |
| CN(Cc1ccc(Br)s1)CC(O)COCCO (stereo not given) | 165 | 236 |
| c1ccc(Oc2cccc(NCc3csnn3)c2)nc1 | 171 | 298 |
| O=C(NCCO)c1cc2c(F)cc(Br)cc2[nH]1 | > 501 | 257 |
| CCOCCC(=O)N1c2ccccc2OCC1C (stereo not given) | > 501 | 97.6 |

| SMILES | IC50 [1] [µM] | IC50 [2] [µM] |
| --- | --- | --- |
| CN(Cc1ccc(O)cc1)C(=O)c1cc(Cl)c[nH]1 | 187 | 173 |
| CC(C)CCNC(=O)Nc1ccc(-n2cccn2)nc1 | 90 | 103 |
| CN(C)S(=O)(=O)NCCNc1cccc(Br)c1 | 208 | 154 |
| NCCCc1nc2ccccc2o1 | 255 | 211 |
| COC(=O)c1cccc(OCC(O)C(F)(F)F)c1 (stereo not given) | > 501 | > 501 |
| CNc1nc(NCCS(C)(=O)=O)ncc1Br | > 501 | > 501 |
| CCS(=O)(=O)NCC(N)c1ccc(C(C)C)cc1 (stereo not given) | 211 | 85.8 |
| CCNC(=O)CNc1cc(C)c(Cl)cc1OC | > 501 | 135 |
| COCCN1CCC(CNC(=O)N2CCC(C)CC2)C1 (stereo not given) | 83.9 | 75.1 |
| NCC1CCN(CCc2ccccc2)C1 (stereo not given) | 213 | 209 |
| NC(=O)NC(=O)CCS(=O)(=O)c1cc(F)ccc1F | 139 | 70.1 |
| CCc1ccc(CNc2ccc(CO)cn2)cc1 | 356 | 160 |
| COc1cccc(CCC(=O)N2CCCC2)c1 | 8 | 2.73 |
| COCCC(CO)NC(=O)c1cnn(C(C)C)c1C (stereo not given) | 124 | 110 |
| COc1cccc(-c2ncc(CN)s2)c1 | 282 | 161 |
| CCNCc1ccc2c(c1)OCO2 | > 501 | 280 |
| CC(CCc1ccc(O)cc1)NC1(CO)CC1 (stereo not given) | > 501 | 199 |
| CC(C)n1nnnc1SCCS(=O)(=O)c1ccccc1 | 164 | 82.8 |
| NCC(=O)N(Cc1cccs1)Cc1cccs1 | 68.7 | 114 |
| Cc1ccc(S(=O)(=O)NC(CN)C2CC2)c(F)c1 (stereo not given) | > 501 | > 501 |
| CC(OC(=O)c1ccc(C(F)(F)F)cc1)C(N)=O (stereo not given) | 466 | 229 |
| NCC1Cc2ccccc21 (stereo not given) | 278 | 114 |

| SMILES | IC50 [1] [µM] | IC50 [2] [µM] |
| --- | --- | --- |
| OCC1CN(c2ncc(Cl)cc2F)CCO1 (stereo not given) | 180 | 115 |
| N#Cc1ccc(NC(=O)Cn2ccnc2)cc1 | > 501 | > 501 |
| COCCC(=O)N1CCC(Nc2ncccc2Br)CC1 | 288 | > 501 |
| Cc1cnc(N2CCC(O)CC2)c(Br)c1 | > 501 | > 501 |
| CN1Cc2cc(-c3csc(N)n3)ccc2NC1=O | > 501 | > 501 |
| COC(=O)C1CCN(C(=O)Cc2cccc(F)c2)CC1 | > 501 | 179 |
| COc1ccccc1C(N)c1ccccn1 (stereo not given) | 453 | 233 |
| CC(N)c1nc(-c2ccc(Br)cc2)c[nH]1 (stereo not given) | 242 | 99.7 |
| CCSc1nnc(-c2ccc[nH]2)o1 | 188 | 169 |
| COC(=O)N1CC(NC(=O)c2cc(C(C)=O)c[nH]2)C1 | > 501 | > 501 |
| CCc1ncc(C(=O)N2CCN(c3nccs3)CC2)s1 | > 501 | 79.4 |
| CCOC(=O)N1CCC(NC(=O)c2ccsc2)CC1 | > 501 | 137 |
| CCCNc1nnc(SC2CCOC2)s1 (stereo not given) | 70.9 | 259 |
| FC(F)COCCn1nnc(-c2ccsc2)n1 | 56.4 | 255 |
| NS(=O)(=O)CC1CCN(c2ncc(Br)cn2)CC1 | 424 | 286 |
| COCC(C)NC(=O)CNc1ccc(OC)c(Br)c1 (stereo not given) | 184 | 172 |
| CCNc1ccnc(C(=O)NCc2ccccc2)c1 | 148 | 169 |
| N#CCCCn1nnc(-c2ccccc2)n1 | 178 | 191 |
| O=C(NCC1CC1)c1cccc2nn[nH]c12 | 256 | 233 |
| COc1ccc(Cl)c(S(=O)(=O)NCCC(C)N)c1 (stereo not given) | 187 | 116 |
| Brc1cc2c(cc1CN1CCCNCC1)OCO2 | 460 | 112 |
| COCCOCCCNC(=O)c1cn2cc(C)nc2s1 | > 501 | 271 |

| SMILES | IC50 [1] [µM] | IC50 [2] [µM] |
| --- | --- | --- |
| Nc1ccc(CNc2nc(C3CC3)ns2)cn1 | > 501 | > 501 |
| CCCN(CCC)S(=O)(=O)N1CCC2(CC1)OCCO2 | > 501 | 149 |
| CCCc1nnc(N2CCC3(CC2)OCC(C)O3)s1 (stereo not given) | 45.5 | 34.3 |
| N#Cc1cc(Br)cc(S(=O)(=O)NCCCN)c1 | > 501 | > 501 |
| CN(C)C(C)(C)CNC(=O)NCCC1CCCCO1 (stereo not given) | > 501 | > 501 |
| O=C(NCCO)c1ccc(OCc2cccs2)cc1 | > 501 | 378 |
| CC(C)c1cccc(S(=O)(=O)N(C)Cc2nnc[nH]2)c1 | > 501 | > 501 |
| COc1cc(Br)ccc1CCCNC(=O)c1c[nH]nn1 | 335 | 143 |
| Cc1cc2nc(CN)[nH]c2cc1C | > 501 | 148 |
| CNCC(=O)NC1CCN(Cc2ccc(Br)cc2)CC1 | 294 | 257 |
| O=C1NC(=O)c2c(O)cccc21 | 254 | 196 |
| CC(C)Cc1ccc(CS(=O)(=O)CCO)cc1 | 83.5 | 353 |
| CC(C)c1csc(C(=O)N2CCOc3ncccc32)n1 | 231 | 139 |
| CCc1nc(CNc2ccc(C#N)nc2)cs1 | 96.8 | 113 |
| CCN(Cc1ccc(Cl)c(Cl)c1)C(=O)CCS(C)(=O)=O | > 501 | 129 |
| CC(C)Cc1cc(C(=O)NCC(O)C(F)(F)F)[nH]n1 (stereo not given) | 160 | 183 |
| CC(C)C(=O)NCCCNC(=O)c1ccc(F)cc1O | > 501 | 125 |
| CN(CCc1ccc(Br)cc1)C(=O)CCCN | > 501 | 179 |
| CC(CO)(CO)NCc1cnn(-c2ccc(Br)cc2)c1 | 393 | 238 |
| CN(CCS(=O)(=O)c1ccc(Cl)cc1)CC(=O)N(C)C | 105 | 63.6 |
| NCc1cc(Oc2cccc(F)c2)ccn1 | > 501 | 45.4 |
| N#CCC1(O)CN(S(=O)(=O)C=Cc2ccc(Cl)cc2)C1 | > 501 | 287 |
